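The compound was tested at five concentrations on cells cultured in 96-well plates, with a 48-hour exposure period. GI50: concentration for 50% inhibition of growth.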 Activity calls are given as the source filed them. No stated cut-off is given here; in the data, active = GI50 up to about 1.1 µM and inactive = higher.
What was measured:
Assay in all cases: inhibition of tumour cell growth, NCI panel, 48 h
HT-29 = test system: HT-29
UACC-62 = test system: UACC-62
RPMI-8226 = test system: RPMI-8226
KM12 = test system: KM12
UACC-257 = test system: UACC-257
SW-620 = test system: SW-620
A549 = test system: A549
SF-268 = test system: SF-268
A498 = test system: A498
SNB-75 = test system: SNB-75
Malme-3M = test system: Malme-3M
SK-MEL-5 = test system: SK-MEL-5
HCT-116 = test system: HCT-116
RXF 393 = test system: RXF 393
CAKI-1 = test system: CAKI-1
SF-295 = test system: SF-295
HOP-92 = test system: HOP-92
NCI-H23 = test system: NCI-H23
SN12C = test system: SN12C
U-251 = test system: U-251

Measured: GI50

Cc1ccc([N+](=O)[O-])cc1S(=O)(=O)Nc1ccc(C2=NNC(c3cccs3)C2)cc1 (centres undefined)
inactive: HT-29 29.9 µM | UACC-62 14.5 µM | RPMI-8226 16.6 µM | KM12 16.5 µM | UACC-257 26.9 µM | SW-620 34.1 µM | A549 22.9 µM | SF-268 36.8 µM | A498 20.4 µM | SNB-75 31.3 µM | Malme-3M 23.4 µM | SK-MEL-5 17.4 µM | HCT-116 22.5 µM | RXF 393 13.6 µM | CAKI-1 30.5 µM | SF-295 6.67 µM | HOP-92 60 µM | NCI-H23 22.2 µM | SN12C 29.2 µM

CC1(C)C2CCC3(OCCO3)C1C(O)C2 (centres undefined)
inactive: HT-29 > 100 µM | UACC-62 > 100 µM | RPMI-8226 > 100 µM | KM12 > 100 µM | UACC-257 > 100 µM | SW-620 > 100 µM | A549 > 100 µM | SF-268 > 100 µM | A498 > 100 µM | SNB-75 > 100 µM | Malme-3M > 100 µM | SK-MEL-5 > 100 µM | HCT-116 > 100 µM | RXF 393 > 100 µM | CAKI-1 > 100 µM | U-251 > 100 µM | SF-295 > 100 µM | HOP-92 > 100 µM | NCI-H23 > 100 µM

Cc1ccc([N+](=O)[O-])cc1/N=N/C(=O)NNc1cc([N+](=O)[O-])ccc1C
inactive: HT-29 21.9 µM | UACC-62 14.7 µM | RPMI-8226 30.4 µM | KM12 23.4 µM | A498 21.4 µM | SNB-75 21.3 µM | Malme-3M 37.6 µM | SK-MEL-5 17.8 µM | HCT-116 17.7 µM | RXF 393 18.1 µM | CAKI-1 25.9 µM | U-251 32.9 µM | SF-295 17.9 µM | HOP-92 70.8 µM | NCI-H23 48.9 µM | SN12C > 10 µM

CSC1NC(c2ccccc2)=C(C#N)C(=O)N1C1OCC(OC(C)=O)C(OC(C)=O)C1OC(C)=O (centres undefined)
inactive: HT-29 > 100 µM | UACC-62 > 100 µM | RPMI-8226 > 100 µM | KM12 > 100 µM | UACC-257 > 100 µM | SW-620 > 100 µM | A549 > 100 µM | SF-268 > 100 µM | A498 > 100 µM | SNB-75 > 100 µM | Malme-3M > 100 µM | SK-MEL-5 > 100 µM | HCT-116 47.9 µM | RXF 393 > 100 µM | CAKI-1 > 100 µM | U-251 > 100 µM | SF-295 > 100 µM | HOP-92 86.3 µM | NCI-H23 > 100 µM | SN12C > 100 µM

CN(C)C/C=C(/c1ccc(Br)cc1)c1cccnc1
inactive: HT-29 78.5 µM | UACC-62 19.6 µM | RPMI-8226 34.7 µM | KM12 74.1 µM | UACC-257 18.2 µM | SW-620 > 100 µM | A549 81.8 µM | SF-268 65.8 µM | A498 20.3 µM | SNB-75 51.5 µM | Malme-3M 20.2 µM | SK-MEL-5 19.7 µM | HCT-116 71 µM | RXF 393 30.6 µM | CAKI-1 92.9 µM | U-251 98.4 µM | SF-295 22.2 µM | HOP-92 64.6 µM | NCI-H23 > 100 µM | SN12C > 100 µM

COc1ccc([C@H]2C=[N+]([O-])O[C@H](OC3CCCC3)[C@@H]2OC(C)=O)cc1OC
inactive: HT-29 20.7 µM | UACC-62 22.8 µM | RPMI-8226 23.5 µM | KM12 26.4 µM | UACC-257 19.7 µM | SW-620 19.8 µM | A549 29.4 µM | SF-268 33.7 µM | A498 > 100 µM | SNB-75 28.4 µM | Malme-3M 25.9 µM | SK-MEL-5 13.1 µM | RXF 393 13.3 µM | CAKI-1 14 µM | U-251 35 µM | SF-295 > 100 µM | HOP-92 14.3 µM | NCI-H23 25.6 µM

C1CCC2(CC1)O[C@@H]1[C@@H](O2)[C@@H](O[C@H]2O[C@@H]3COC4(CCCCC4)O[C@H]3[C@@H]3OC4(CCCCC4)O[C@@H]23)O[C@@H]2COC3(CCCCC3)O[C@@H]12
inactive: HT-29 > 100 µM | UACC-62 > 100 µM | RPMI-8226 36.6 µM | KM12 > 100 µM | UACC-257 > 100 µM | SW-620 > 100 µM | A549 > 100 µM | SF-268 > 100 µM | A498 > 100 µM | SNB-75 > 100 µM | Malme-3M > 100 µM | SK-MEL-5 > 100 µM | HCT-116 > 100 µM | RXF 393 > 100 µM | CAKI-1 > 100 µM | U-251 > 100 µM | SF-295 > 100 µM | HOP-92 > 100 µM | NCI-H23 > 100 µM | SN12C > 100 µM

COC(=O)c1cccc(C(=O)OC)c1
inactive: HT-29 > 100 µM | RPMI-8226 > 100 µM | KM12 > 100 µM | UACC-257 > 100 µM | SW-620 > 100 µM | A549 > 100 µM | SF-268 > 100 µM | A498 > 100 µM | SNB-75 > 100 µM | Malme-3M > 100 µM | HCT-116 > 100 µM | RXF 393 > 100 µM | CAKI-1 > 100 µM | U-251 > 100 µM | SF-295 > 100 µM | HOP-92 > 100 µM | NCI-H23 > 100 µM | SN12C > 100 µM

c1ccc(/N=C2/SC3=Nc4cccc5cccc(c45)N3/C2=N/c2ccccc2)cc1
inactive: HT-29 > 100 µM | UACC-62 > 100 µM | RPMI-8226 > 100 µM | KM12 > 100 µM | A498 > 100 µM | SNB-75 > 100 µM | Malme-3M > 100 µM | SK-MEL-5 > 100 µM | HCT-116 > 10 µM | RXF 393 > 100 µM | CAKI-1 > 100 µM | U-251 > 100 µM | SF-295 > 100 µM | HOP-92 > 100 µM | NCI-H23 > 100 µM | SN12C > 100 µM

CCOC(=O)c1nc2cc(C(F)(F)F)ccc2nc1Oc1ccc(F)cc1
inactive: UACC-62 > 100 µM | RPMI-8226 > 100 µM | KM12 > 100 µM | UACC-257 > 100 µM | SW-620 > 100 µM | A549 > 100 µM | SF-268 > 100 µM | A498 > 100 µM | SNB-75 > 100 µM | Malme-3M > 100 µM | SK-MEL-5 > 100 µM | HCT-116 4.49 µM | RXF 393 54 µM | CAKI-1 > 100 µM | U-251 > 100 µM | SF-295 > 100 µM | HOP-92 87.3 µM | SN12C > 100 µM

Source: ChEMBL document CHEMBL1201862, “PubChem BioAssay data set” (2004)
